Patent US6166000A, “Methods for preparation and use of 1α,24(S)-Dihydroxy vitamin . D.sub2” (priority 1995, dated 2000)
“Also recorded” adds a separate entry of the source.

How the values were obtained:
[1] = molecular target: T1, bovine thymus VDR (Bos taurus, UniProt Q28037); test: Radioreceptor assay, displacement of 3H-1α,25-(OH)2 D3 tracer (Incstar kit); assay type: binding; conditions: in words
T1 construct: commercially available kit of bovine thymus VDR; purchased Incstar (Stillwater, Minn.); host or cells: bovine thymus
T1 sequence (Q28037 1-426): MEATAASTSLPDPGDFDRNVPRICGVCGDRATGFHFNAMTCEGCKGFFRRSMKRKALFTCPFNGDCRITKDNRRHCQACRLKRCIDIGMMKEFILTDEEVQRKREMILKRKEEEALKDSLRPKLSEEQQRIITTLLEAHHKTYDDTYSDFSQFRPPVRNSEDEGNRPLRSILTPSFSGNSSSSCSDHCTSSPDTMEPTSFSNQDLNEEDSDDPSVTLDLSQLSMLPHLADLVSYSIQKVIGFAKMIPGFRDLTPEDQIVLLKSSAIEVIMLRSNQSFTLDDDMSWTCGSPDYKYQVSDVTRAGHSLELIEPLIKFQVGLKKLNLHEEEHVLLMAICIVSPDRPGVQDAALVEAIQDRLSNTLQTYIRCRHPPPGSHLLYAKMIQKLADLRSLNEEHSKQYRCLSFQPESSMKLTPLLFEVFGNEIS
Excerpt: Purified 1α,24(S)-(OH)2 D2 was quantitated by photodiode array spectrophotometry and assayed in the radioreceptor assay.
The purified 1α,24(R)-(OH)2 D2 and 1α,24(S)-(OH)2 D2 epimers were quantitated by ultraviolet spectroscopy. The concentration of 1α,24(R)-(OH)2 D2 required to produce the same displacement of ^3 H-1α,25-(OH)2 D3 tracer from the receptor was 20 to 30 times that required for 1α,24(S)-(OH)2 D2, as shown in FIG. 4.

[2] = molecular target: T2, vitamin D serum binding protein (DBP) (Rattus norvegicus, UniProt P04276); test: Affinity for vitamin D serum binding protein using vitamin D deficient rat serum; conditions: in words
T2 sequence (P04276 17-476): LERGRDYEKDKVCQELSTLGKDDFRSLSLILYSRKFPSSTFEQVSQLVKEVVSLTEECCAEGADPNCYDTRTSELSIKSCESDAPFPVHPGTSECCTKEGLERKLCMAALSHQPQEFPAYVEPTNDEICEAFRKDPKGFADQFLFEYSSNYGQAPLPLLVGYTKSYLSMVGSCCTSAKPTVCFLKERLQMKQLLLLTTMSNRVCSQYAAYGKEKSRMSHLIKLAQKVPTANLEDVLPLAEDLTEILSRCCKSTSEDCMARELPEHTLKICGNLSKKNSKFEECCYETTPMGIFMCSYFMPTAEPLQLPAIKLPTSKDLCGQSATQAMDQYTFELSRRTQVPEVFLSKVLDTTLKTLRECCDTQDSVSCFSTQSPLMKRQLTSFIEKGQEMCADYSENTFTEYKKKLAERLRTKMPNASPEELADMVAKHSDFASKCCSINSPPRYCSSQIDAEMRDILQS
Excerpt: In addition, the weak binding by the DBP was indicative of more rapid clearance, allowing for low toxicity.

[3] = system: postmenopausal osteoporotic women; test: Dose ranging study in postmenopausal osteoporotic women; assay type: in vivo, human; conditions: oral 0.5 to 8.0 μg/day, escalated weekly over five weeks
Procedure: Twenty postmenopausal osteoporotic women are enrolled in an open label study.
On admission to the study, all patients receive instruction on selecting a daily diet containing 400 to 600 mg of calcium. Compliance to this diet is verified at weekly intervals by 24-hour food records and by interviews with each patient.
All patients complete a one-week baseline period, a five-week treatment period, and a one-week post-treatment observation period. During the treatment period, patients orally self-administer 1α,24(S)-dihydroxyvitamin D2 at an initial dose of 0.5 μg/day for the first week, and at successively higher doses of 1.0, 2.0, 4.0, and 8.0 μg/day in each of the following four weeks. All doses are administered before breakfast.
Blood and urine chemistries are monitored on a weekly basis throughout the study. Key blood chemistries include fasting serum levels of-calcium, phosphorus, osteocalcin, creatinine, and blood urea nitrogen. Key urine chemistries include 24-hour excretion of calcium, phosphorus, and creatinine.

[4] = system: postmenopausal osteoporotic out-patients; test: Preventive treatment of bone mass loss in postmenopausal osteoporotic women; assay type: in vivo, human; conditions: at or above 1.0 μg/day, 24 to 36 months
Procedure: A clinical study is conducted with postmenopausal osteoporotic out-patientshaving ages between 55 and 75 years. The study involves up to 120 patients randomly divided into three treatment groups and continues for 24 to 36 months. Two of the treatment groups receive constant dosages of 1α,24(S)-dihydroxy vitamin D2 (u.i.d.; two different dose levels at or above 1.0 μg/day) and the other group receives a matching placebo. All patients maintain a normal intake of dietary calcium (500 to 800 mg/day) and refrain from using calcium supplements. Efficacy is evaluated by pre-and post-treatment comparisons of the patient groups with regard to (a) total body calcium retention, and (b) radial and spinal bone mineral density as determined by dual-photon absorptiometry (DPA) or dual-energy x-ray absorptiometry (DEXA). Safety is evaluated by comparisons of urinary hydroxyproline excretion, serum and urine calcium levels, creatinine. clearance, blood urea nitrogen, and other routine determinations.

[5] = system: healthy postmenopausal women; test: Prophylaxis of postmenopausal bone loss; assay type: in vivo, human; conditions: at or above 1.0 μg/day, 24 to 36 months
Procedure: A clinical study is conducted with healthy postmenopausal women having ages between 55 and 60 years. The study involves up to 80 patients randomly divided into two treatment groups, and continues for 24 to 36 months. One treatment group receives a constant dosage of 1α,24(S)-dihydroxy vitamin D2 (u.i.d.; a dose level at or above 1.0 μg/day) and the other receives a matching placebo. The study is conducted as indicated in Example 2 above.

[6] = system: HL-60 promyelocytes; test: HL-60 cell differentiation assay; assay type: cell-based; conditions: dose-response; acid esterase, NBT reduction, thymidine incorporation
Procedure: A dose-response study is conducted with 1α,24(S)-(OH)2 D2 in the HL-60 cell differentiation assay as described by DeLuca and Ostrom (DeLuca, H. F. and Ostrem, V. K., Prog. Clin. Biol. Res., vol. 259, pp. 41-55 (1988)). In this study, 1α,25-(OH)2 D3 is used as a positive control and appropriate solvents are used as negative controls. The following variables are evaluated: nonspecific acid esterase activity, nitroblue tetrazolium (NBT) reduction, and thymidine incorporation.

- binding affinity for the vitamin D serum binding protein [2]: more weakly than does 1,25-(OH)2 D3
- routinely monitored serum parameters [3]: no effect
- urinary excretion of hydroxyproline [3]: nor does it increase
Structure (SMILES): C=C1/C(=C\C=C2/CCC[C@]3(C)[C@@H]([C@H](C)/C=C/[C@@](C)(O)C(C)C)CC[C@@H]23)C[C@@H](O)C[C@@H]1O [1α,24(S)-(OH)2 D2, 1α,24(S)-dihydroxy Vitamin D2]
- affinity for VDR relative to 1α,25-(OH)2 D3 [1]: two-fold less competitive; also recorded: two-fold lower affinity
- serum osteocalcin levels [3]: increases
- incidence of hypercalcemia or hypercalciuria, or any other metabolic disturbance [4]: insignificant incidence
- total body calcium, and radial and spinal bone densities relative to placebo [4]: significantly higher
- monitored safety parameters, long-term administration [5]: confirm the safety
- differentiation of HL-60 promyelocytes to monocytes [6]: potent activity in promoting differentiation
